Measured values published in ChEMBL document CHEMBL3399952, “Design and synthesis of novel anti-tuberculosis agents from the celecoxib pharmacophore” (Bioorg Med Chem, 2015).
Active and inactive are the calls of the source. The rule behind the calls is not given here.

How the values were obtained:
[1] = Cytotoxicity against human macrophages assessed as cell death at 1.25 to 40 uM after 48 hrs by TMRE-based assay; conditions: macrophage
[2] = tested on: Mycobacterium tuberculosis; experiment: Antimycobacterial activity against Mycobacterium tuberculosis H37Rv expressing Lux infected in human macrophages assessed as […] reduction in growth measured at 5 uM after 48 hrs by bioluminescence assay; assay type: functional, organism-based
[3] = tested on: Mycobacterium tuberculosis; experiment: Antimycobacterial activity against Mycobacterium tuberculosis H37Rv expressing Lux infected in human macrophages assessed as reduction in growth measured at <= 2.5 uM after 72 hrs by bioluminescence assay; assay type: functional, organism-based
[4] = tested on: Mycobacterium tuberculosis; experiment: Antimycobacterial activity against Mycobacterium tuberculosis H37Rv assessed as reduction in growth measured at <= 2.5 uM after 72 hrs by CFU assay; assay type: functional
[5] = tested on: Mycobacterium tuberculosis; experiment: Antimycobacterial activity against Mycobacterium tuberculosis H37Rv expressing Lux assessed as reduction in growth measured after 3 weeks by bioluminescence assay; assay type: functional, organism-based; conditions: 504 h
[6] = Cytotoxicity against human macrophages assessed as cell death at > 10 uM by TMRE-based assay; conditions: macrophage
[7] = tested on: Mycobacterium tuberculosis; experiment: Antimycobacterial activity against Mycobacterium tuberculosis H37Rv expressing Lux assessed as reduction in growth measured at 5 uM after 3 weeks by bioluminescence assay; assay type: functional, organism-based
[8] = tested on: Mycobacterium tuberculosis; experiment: Antimycobacterial activity against Mycobacterium tuberculosis H37Rv assessed as reduction in growth measured after 48 hrs by CFU assay; assay type: functional
[9] = tested on: Mycobacterium tuberculosis; experiment: Antimycobacterial activity against Mycobacterium tuberculosis H37Rv expressing Lux infected in human macrophages assessed as reduction in growth measured at 5 to 20 uM after 3 weeks by bioluminescence assay; assay type: functional, organism-based
[10] = Cytotoxicity against human macrophages assessed as cell death at 20 uM by TMRE-based assay; parameters: species or system Macrophage; conditions: read-out: INH

SMILES	Activity [1]	inhibition [3]	fold change (FC) [4]	IC50 [5] [nM]	further results
CNC(=O)CCc1cc(-c2ccc(-c3ccc(C(F)(F)F)cc3)cc2)nn1-c1ccc(NC(=O)c2ccncc2)cc1	Non-toxic	Active	>1	270	inhibition [2]: Active
CNC(=O)CCc1cc(-c2ccc(-c3ccc(C(F)(F)F)cc3)cc2)n(-c2ccc(NC(=O)c3ccncc3)cc2)n1	Non-toxic	Active	>1	480	inhibition [2]: Active
COc1nc2ccc(Br)cc2cc1[C@@H](c1ccccc1)[C@@](O)(CCN(C)C)c1cccc2ccccc12 [BEDAQUILINE]	–	–	–	50	–
CNC(=O)CCc1cc(-c2ccc(-c3ccc(C(F)(F)F)cc3)cc2)n(-c2ccc(NC(=O)c3cn(C)cn3)cc2)n1	Non-toxic	Active	>1	180	–
CNC(=O)CCc1cc(-c2ccc(-c3ccc(C(F)(F)F)cc3)cc2)n(-c2ccc(NC(=O)c3ccc(N)cc3)cc2)n1	–	Active	>1	320	Activity [6]: Toxic
NNC(=O)c1ccncc1 [ISONIAZID]	–	–	–	330	inhibition [7]: Active
CNC(=O)CCc1cc(-c2ccc(-c3ccc(C(F)(F)F)cc3)cc2)n(-c2ccc(NC(=O)c3ccncc3Cl)cc2)n1	Non-toxic	Active	>1	430	–
NS(=O)(=O)Nc1ccc(-n2nc(C(F)(F)F)cc2-c2ccc3c(ccc4ccccc43)c2)cc1	–	–	–	–	fold change (FC) [8]: 1
CNC(=O)CCc1cc(-c2ccc(-c3ccc(C(F)(F)F)cc3)cc2)n(-c2ccc(NC(=O)c3ccnc(C)c3)cc2)n1	Non-toxic	Active	>1	290	inhibition [2]: Active
CCc1nc2ccc(Cl)cn2c1C(=O)NCc1ccc(N2CCC(c3ccc(OC(F)(F)F)cc3)CC2)cc1 [TELACEBEC]	–	–	–	< 3	–
CNC(=O)CCc1cc(-c2ccc(-c3ccc(C(F)(F)F)cc3)cc2)n(-c2ccc(NS(=O)(=O)N(C)C)cc2)n1	–	–	–	2200	inhibition [7]: Active; inhibition [9]: Active; cytotoxicity at 20 µM [10]: 4%
O=[N+]([O-])c1cn2c(n1)OC[C@@H](OCc1ccc(OC(F)(F)F)cc1)C2 [PRETOMANID]	–	–	–	400	–
CNC(=O)CCc1cc(-c2ccc(-c3ccc(C(F)(F)F)cc3)cc2)n(-c2ccc(NS(=O)(=O)NC(=O)OC(C)(C)C)cc2)n1	–	–	–	–	inhibition [7]: Active; inhibition [9]: Active; cytotoxicity at 20 µM [10]: 26%
